Patent US20240238423A9, “TETRAHYDROISOQUINOLINE HETEROBIFUNCTIONAL BCL-XL DEGRADERS” (Treeline Biosciences, Inc., priority 2022, published 2024)
Read-outs that look alike come from different tables or passages of the source.

Molecular target: T1, Human BCL-XL protein (N-terminal HiBiT tagged BCL-XL in HT1080 cells) (Homo sapiens, UniProt Q07817)
T1 construct: expressed in transfected cells; host or cells: HT-1080 (ATCC CCL-121), stably transduced with lentivirus pLV-UBC-N-HiBiT-BCL-XL-PGK-puro and selected with puromycin
Experiment: HiBiT based degradation assay
Format: cell-based
Conditions: HT1080 cells expressing HiBiT-BCL-XL; for Ymin (6 h) / Ymin (24 h): BCL-XL degradation normalized with DMSO control; for DC50: BCL-XL degradation
Outline: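 This HiBiT degradation assay measured loss of BCL-XL in HT1080 cells that stably express an N-terminal HiBiT-BCL-XL fusion delivered by lentivirus. Cells were added to compound-spotted 384-well plates, and luminescence was read on a PHERAstar FSX reader. Signal was expressed relative to DMSO controls, curves were fitted by four-parameter logistic regression, and for hook-shaped curves the Ymin point served as the bottom plateau when calculating EC50.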

T1 sequence (Q07817 whole entry): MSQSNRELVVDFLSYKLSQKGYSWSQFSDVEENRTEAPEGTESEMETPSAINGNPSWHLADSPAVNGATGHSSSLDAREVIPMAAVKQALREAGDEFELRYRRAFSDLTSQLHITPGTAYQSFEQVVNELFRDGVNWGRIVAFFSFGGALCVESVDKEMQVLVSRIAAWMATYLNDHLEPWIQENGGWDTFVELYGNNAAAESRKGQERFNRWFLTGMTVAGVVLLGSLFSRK

SMILES | Ymin (6 h) | Ymin (24 h) | DC50 (6 h, read-out: EC50 (6 h)) | DC50 (24 h, read-out: EC50 (24 h))
Cc1c(Oc2ccc(CCCN3CCN(c4ccc5c(C6CCC(=O)NC6=O)nn(C)c5c4)CC3)cc2)cccc1-c1ccc(N2CCc3cccc(C(=O)Nc4nc5ccccc5s4)c3C2)nc1C(=O)O (stereo not drawn) [Compound 149, 6-(8-(benzo[d]thiazol-2-ylcarbamoyl)-3,4-dihydroisoquinolin-2(1H)-yl)-3-(3-(4-(3-(4-(3-(2,6-dioxopiperidin-3-yl)-1-methyl-1H-indazol-6-yl)piperazin-1-yl)propyl)phenoxy)-2-methylphenyl)picolinic acid] | B (50% ≤ Ymin < 70%) | A (Ymin < 50%) | < 0.1 µM | < 0.1 µM
Cc1c(Oc2ccc(CCCN3CCN(c4cccc5c(C6CCC(=O)NC6=O)nn(C)c45)CC3)cc2)cccc1-c1ccc(N2CCc3cccc(C(=O)Nc4nc5ccccc5s4)c3C2)nc1C(=O)O (stereo not drawn) [Compound 150, 6-[8-(1,3-benzothiazol-2-ylcarbamoyl)-3,4-dihydro-1H-isoquinolin-2-yl]-3-[3-[4-[3-[4-[3-(2,6-dioxo-3-piperidyl)-1-methyl-indazol-7-yl]piperazin-1-yl]propyl]phenoxy]-2-methyl-phenyl]pyridine-2-carboxylic acid] | B (50% ≤ Ymin < 70%) | B (50% ≤ Ymin < 70%) | 0.1 to 1 µM | < 0.1 µM
Cc1c(OCCCN2CCN(CC(=O)N3CCN(c4cccc5c(C6CCC(=O)NC6=O)nn(C)c45)CC3)CC2)cccc1-c1ccc(N2CCc3cccc(C(=O)Nc4nc5ccccc5s4)c3C2)nc1C(=O)O (stereo not drawn) [Compound 151, 6-(8-(Benzo[d]thiazol-2-ylcarbamoyl)-3,4-dihydroisoquinolin-2(1H)-yl)-3-(3-(3-(4-(2-(4-(3-(2,6-dioxopiperidin-3-yl)-1-methyl-1H-indazol-7-yl)piperazin-1-yl)-2-oxoethyl)piperazin-1-yl)propoxy)-2-methylphenyl)picolinic acid] | B (50% ≤ Ymin < 70%) | A (Ymin < 50%) | 0.1 to 1 µM | < 0.1 µM
Cc1cc(OCCCN2CCN(CC(=O)N3CCN(c4cccc5c(C6CCC(=O)NC6=O)nn(C)c45)CC3)CC2)ccc1-c1ccc(N2CCc3cccc(C(=O)Nc4nc5ccccc5s4)c3C2)nc1C(=O)O (stereo not drawn) [Compound 152, 6-(8-(Benzo[d]thiazol-2-ylcarbamoyl)-3,4-dihydroisoquinolin-2(1H)-yl)-3-(4-(3-(4-(2-(4-(3-(2,6-dioxopiperidin-3-yl)-1-methyl-1H-indazol-7-yl)piperazin-1-yl)-2-oxoethyl)piperazin-1-yl)propoxy)-2-methylphenyl)picolinic acid] | B (50% ≤ Ymin < 70%) | A (Ymin < 50%) | < 0.1 µM | < 0.1 µM
Cc1cc(OCCCN2CCN(CC(=O)N3CCN(c4ccc5c(C6CCC(=O)NC6=O)nn(C)c5c4)CC3)CC2)ccc1-c1ccc(N2CCc3cccc(C(=O)Nc4nc5ccccc5s4)c3C2)nc1C(=O)O (stereo not drawn) [Compound 153, 6-(8-(Benzo[d]thiazol-2-ylcarbamoyl)-3,4-dihydroisoquinolin-2(1H)-yl)-3-(4-(3-(4-(2-(4-(3-(2,6-dioxopiperidin-3-yl)-1-methyl-1H-indazol-6-yl)piperazin-1-yl)-2-oxoethyl)piperazin-1-yl)propoxy)-2-methylphenyl)picolinic acid] | A (Ymin < 50%) | A (Ymin < 50%) | < 0.1 µM | < 0.1 µM
Cc1c(OCCCCCCCCCN2CCN(c3ccc4c(C5CCC(=O)NC5=O)nn(C)c4c3)CC2)cccc1-c1ccc(N2CCc3cccc(C(=O)Nc4nc5ccccc5s4)c3C2)nc1C(=O)O (stereo not drawn) [Compound 155, 6-[8-(1,3-benzothiazol-2-ylcarbamoyl)-3,4-dihydro-1H-isoquinolin-2-yl]-3-[3-[9-[4-[3-(2,6-dioxo-3-piperidyl)-1-methyl-indazol-6-yl]piperazin-1-yl]nonoxy]-2-methyl-phenyl]pyridine-2-carboxylic acid] | B (50% ≤ Ymin < 70%) | A (Ymin < 50%) | < 0.1 µM | < 0.1 µM
Cc1c(OCC2CC3(CCN(CC(=O)Nc4ccc5c(C6CCC(=O)NC6=O)nn(C)c5c4)CC3)C2)cccc1-c1ccc(N2CCc3cccc(C(=O)Nc4nc5ccccc5s4)c3C2)nc1C(=O)O (stereo not drawn) [Compound 156, 6-(8-(benzo[d]thiazol-2-ylcarbamoyl)-3,4-dihydroisoquinolin-2(1H)-yl)-3-(3-((7-(2-((3-(2,6-dioxopiperidin-3-yl)-1-methyl-1H-indazol-6-yl)amino)-2-oxoethyl)-7-azaspiro[3.5]nonan-2-yl)methoxy)-2-methylphenyl)picolinic acid] | A (Ymin < 50%) | A (Ymin < 50%) | < 0.1 µM | < 0.1 µM
Cc1c(-c2ccc(N3CCc4cccc(C(=O)Nc5nc6ccccc6s5)c4C3)nc2C(=O)NCCCCCCCC(=O)Nc2ccc3c(C4CCC(=O)NC4=O)nn(C)c3c2)cnn1CC12CC3CC(CC(C3)C1)C2 (stereo not drawn) [Compound 157, 2-(5-(1-(((3r,5r,7r)-adamantan-1-yl)methyl)-5-methyl-1H-pyrazol-4-yl)-6-((8-((3-(2,6-dioxopiperidin-3-yl)-1-methyl-1H-indazol-6-yl)amino)-8-oxooctyl)carbamoyl)pyridin-2-yl)-N-(benzo[d]thiazol-2-yl)-1,2,3,4-tetrahydroisoquinoline-8-carboxamide] | B (50% ≤ Ymin < 70%) | – | < 0.1 µM | –
Cc1c(OCCCC2CCN(CC(=O)Nc3cccc4c(C5CCC(=O)NC5=O)nn(C)c34)CC2)cccc1-c1ccc(N2CCc3cccc(C(=O)Nc4nc5ccccc5s4)c3C2)nc1C(=O)O (stereo not drawn) [Compound 158, 6-(8-(benzo[d]thiazol-2-ylcarbamoyl)-3,4-dihydroisoquinolin-2(1H)-yl)-3-(3-(3-(1-(2-((3-(2,6-dioxopiperidin-3-yl)-1-methyl-1H-indazol-7-yl)amino)-2-oxoethyl)piperidin-4-yl)propoxy)-2-methylphenyl)picolinic acid] | C (Ymin ≥ 70%) | B (50% ≤ Ymin < 70%) | < 0.1 µM | 0.1 to 1 µM

Second part, the molecule after the results:

Ymin (6 h) | Ymin (24 h) | DC50 (6 h, read-out: EC50 (6 h)) | DC50 (24 h, read-out: EC50 (24 h)) | SMILES
B (50% ≤ Ymin < 70%) | A (Ymin < 50%) | < 0.1 µM | < 0.1 µM | Cc1c(O[C@H]2CC[C@H](CCCN3CCN(c4ccc5c(C6CCC(=O)NC6=O)nn(C)c5c4)CC3)CC2)cccc1-c1ccc(N2CCc3cccc(C(=O)Nc4nc5ccccc5s4)c3C2)nc1C(=O)O (stereo partly drawn) [Compound 148a, 6-(8-(benzo[d]thiazol-2-ylcarbamoyl)-3,4-dihydroisoquinolin-2(1H)-yl)-3-(3-(((1s,4r)-4-(3-(4-(3-(2,6-dioxopiperidin-3-yl)-1-methyl-1H-indazol-6-yl)piperazin-1-yl)propyl)cyclohexyl)oxy)-2-methylphenyl)picolinic acid]
– | A (Ymin < 50%) | – | < 0.1 µM | Cc1c(O[C@H]2CC[C@@H](CCCN3CCN(c4ccc5c(C6CCC(=O)NC6=O)nn(C)c5c4)CC3)CC2)cccc1-c1ccc(N2CCc3cccc(C(=O)Nc4nc5ccccc5s4)c3C2)nc1C(=O)O (stereo partly drawn) [Compound 148b, 6-(8-(benzo[d]thiazol-2-ylcarbamoyl)-3,4-dihydroisoquinolin-2(1H)-yl)-3-(3-(((1r,4s)-4-(3-(4-(3-(2,6-dioxopiperidin-3-yl)-1-methyl-1H-indazol-6-yl)piperazin-1-yl)propyl)cyclohexyl)oxy)-2-methylphenyl)picolinic acid]
A (Ymin < 50%) | A (Ymin < 50%) | < 0.1 µM | < 0.1 µM | Cc1cc(OCCCN2C[C@@H](C)N(CC(=O)N3CCN(c4ccc5c(C6CCC(=O)NC6=O)nn(C)c5c4)CC3)[C@@H](C)C2)ccc1-c1ccc(N2CCc3cccc(C(=O)Nc4nc5ccccc5s4)c3C2)nc1C(=O)O (stereo partly drawn) [Compound 154a, 6-(8-(Benzo[d]thiazol-2-ylcarbamoyl)-3,4-dihydroisoquinolin-2(1H)-yl)-3-(4-(3-((3R,5S)-4-(2-(4-(3-(2,6-dioxopiperidin-3-yl)-1-methyl-1H-indazol-6-yl)piperazin-1-yl)-2-oxoethyl)-3,5-dimethylpiperazin-1-yl)propoxy)-2-methylphenyl)picolinic acid]
B (50% ≤ Ymin < 70%) | – | < 0.1 µM | – | Cc1c(OCCN2C[C@@H](C)N(CC(=O)Nc3ccc4c(C5CCC(=O)NC5=O)nn(C)c4c3)[C@@H](C)C2)cccc1-c1ccc(N2CCc3cccc(C(=O)Nc4nc5ccccc5s4)c3C2)nc1C(=O)O (stereo partly drawn) [Compound 159a, 6-(8-(benzo[d]thiazol-2-ylcarbamoyl)-3,4-dihydroisoquinolin-2(1H)-yl)-3-(3-(2-((3R,5S)-4-(2-((3-(2,6-dioxopiperidin-3-yl)-1-methyl-1H-indazol-6-yl)amino)-2-oxoethyl)-3,5-dimethylpiperazin-1-yl)ethoxy)-2-methylphenyl)picolinic acid]
– | A (Ymin < 50%) | – | < 0.1 µM | Cc1c(OCCC[C@@H]2CCN(CC(=O)Nc3ccc4c(C5CCC(=O)NC5=O)nn(C)c4c3)C2)cccc1-c1ccc(N2CCc3cccc(C(=O)Nc4nc5ccccc5s4)c3C2)nc1C(=O)O (stereo partly drawn) [Compound 160a, 6-[8-(1,3-benzothiazol-2-ylcarbamoyl)-3,4-dihydro-1H-isoquinolin-2-yl]-3-[3-[3-[(3R)-1-[2-[[3-(2,6-dioxo-3-piperidyl)-1-methyl-indazol-6-yl]amino]-2-oxo-ethyl]pyrrolidin-3-yl]propoxy]-2-methyl-phenyl]pyridine-2-carboxylic acid]
